# In article PMC11002875, “Linking triphenylphosphonium cation to a bicyclic hydroquinone improves their antiplatelet effect via the regulation of mitochondrial function” (Redox Biology, 2024):
# Legend:
# [1] = tested on: Washed platelets; test: Intraplatelet calcium levels (Fluo-4-AM); assay type: cell-based, Human; conditions: compounds 1, 5 and 10 μM, 10 min
# Experimental: (§1) Human platelet purification. The blood sample was obtained from voluntary donors (10 days without antiplatelet medication) who agreed to participate after signing informed consent (Scientific Ethics Committee of the University of Talca N° 04–2022). Briefly, blood anticoagulated with acid-citrate-dextrose (ACD) was obtained in a 4:1 v/v ratio. The sample was centrifuged for 12 min at 250 g to obtain platelet-rich plasma (PRP). Subsequently, the PRP was centrifuged for 8 min at 900 g to obtain the platelet pellet. The plasma supernatant was removed, and the platelets were resuspended in Tyrodes buffer without calcium plus ACD in a ratio of 5:1 v/v. The platelets were centrifuged once more for 8 min at 900 g and the pellet was resuspended in Tyrodes buffer without calcium. Finally, the platelets were counted (Mindray BC-3000 Plus hematology counter, Japan), adjusted to the desired concentration, and used within 3 h.
# Intraplatelet calcium levels. Washed platelets (200-250 × 10^6 platelets/mL) were labeled Fluo-4-AM probe with 0.5 μM and incubated for 20 min at room temperature protected from light. Subsequently, platelets were adjusted to a count of 50 × 10^6 platelets/mL, and compounds (1, 5, and 10 μM) were added and incubated for 10 min at 37 °C. The sample was acquired in the BD Facs Lyric flow cytometer (BD Biosciences, USA). Representative dot plots are available in Supplementary Figs. 13 and 26. As a control for increased intracellular calcium, P-trifluoromethoxyphenylhydrazone carbonylcyanide (FCCP) 1 μM was used.
# [2] = tested on: platelet-rich plasma; test: Platelet activation markers in PRP (flow cytometry); assay type: cell-based, Human; conditions: collagen 2 μg/mL
# Experimental: Platelet aggregation in platelet-rich plasma. The blood sample was obtained from voluntary donors (10 days without antiplatelet medication) who agreed to participate after signing informed consent (Scientific Ethics Committee of the University of Talca N° 04–2022). Venous blood was collected by phlebotomy into 3.2% sodium citrate tubes. The tubes were centrifuged at 250 g for 12 min to obtain PRP. After reserving the PRP, the tubes were centrifuged again at 900 g for 10 min to obtain platelet-poor plasma (PPP). For the aggregation reaction, PRP was adjusted to 200-250 × 10^6 platelets/mL with PPP [[63], [64], [65]]. Platelet counting was performed in a counter (Mindray BC-3000 Plus hematology counter, Japan). The samples were preincubated with the compounds under study for 5 min at 37 °C in the aggregometer (Agg RAM- Helena Biosciences). Aggregation was initiated with collagen 2 μg/mL and the reaction was evaluated for 5 min at 37 °C in shaking at 1000 rpm.
# Platelet activation markers. […] Aliquots of the reaction were then collected and labeled separately with human antibodies (BD Biosciences, San José, CA, USA) for P-selectin, CD63, activated GPIIb/IIIa (PAC-1), and fibrinogen to assess the levels of each marker on the platelet membrane. The sample was acquired using the BD Facs Lyric flow cytometer (BD Biosciences, USA). […]
# [3] = tested on: Washed platelets; test: Mitochondrial membrane potential (TMRM); assay type: cell-based, Human; conditions: compounds 1, 5 and 10 μM, 20 min
# Experimental: as §1
# Mitochondrial membrane potential (ΔΨm). Washed platelets (50 × 10^6 platelets/mL) were labeled with a 100 nM tetramethylrhodamine methyl ester (TMRM) probe and incubated with compounds (1, 5 and 10 μM) for 20 min at 37 °C. The sample was acquired in the BD Facs Lyric flow cytometer (BD Biosciences, USA). Representative dot plots are available in Supplementary Figs. 12, 24, and 25. Carbonyl cyanide 4-(trifluoromethoxy) phenylhydrazone (FCCP) 1 μM was used as a control for decreasing the mitochondrial membrane potential.
# [4] = tested on: Whole blood; test: Bleeding time in vitro, Innovance PFA-200 closure time; parameters: species or system Human; conditions: 10 μM, 10 min
# Experimental: Bleeding time in vitro Innovance PFA-200 system. Blood was obtained in 3.2% citrate tubes which were allowed to settle for 30 min before the test. Whole blood was mixed with NP4 10 μM and incubated for 10 min. Subsequently, the sample was loaded into the Collagen/Epinephrine or Collagen/ADP cartridge and the closure time was measured in the Innovance PFA-200 system (Siemens Healthcare Diagnostics Products, Munich, Germany). Eptifibatide 10 μM was used as a control.
# [5] = tested on: Washed platelets; test: Intraplatelet (cytosolic) ROS levels (DHE); assay type: cell-based, Human; conditions: compounds 1, 5 and 10 μM, 10 min
# Experimental: as §1
# Intraplatelet ROS levels. Washed platelets (50 × 10^6 platelets/mL) were labeled with the dihydroethidium (DHE) probe 10 μM and incubated for 20 min at 37 °C protected from light. After, compounds (1, 5, and 10 μM) were added to the platelets and incubated for 10 min at 37 °C. The sample was acquired in the BD Facs Lyric flow cytometer (BD Biosciences, USA). Representative dot plots are available in Supplementary Figs. 18 and 27. As a positive control for ROS, antimycin A 20 μM was used.
# [6] = tested on: platelets; test: Oxygen consumption and extracellular acidification rate (Seahorse XFe24); assay type: cell-based, Human
# Experimental: as §1
# Oxygen consumption and extracellular acidification rate. Oxygen consumption rate (OCR) and extracellular acidification rate (ECAR) were measured with a Seahorse XFe24 extracellular flux analyzer (Agilent, Santa Clara, CA, USA). Briefly, 100 μL of platelets washed in modified Tyrode-HEPES buffer were deposited (20–25 × 10^6 cells/well) and then centrifuged at 300 g for 10 min. Platelets were incubated with NP4 10 μM for 5 min, and then Tyrode's-HEPES buffer was removed and Seahorse medium (8.3 g/L DMEM, 1.85 g/L NaCl, 5 mM glucose, 1 mM pyruvate, 2 mM glutamine, 5 mM HEPES, pH 7.4) was added to a final volume of 600 μL [70]. OCR was measured before and after the sequential addition of 3 μg/mL collagen, 2.5 μM oligomycin, 1.4 μM FCCP, and 2 μM/2 μM antimycin A/rotenone. Non-mitochondrial OCR was subtracted from all measurements. Respiratory parameters obtained with Mito Stress Test (Supplementary Table 1) were calculated as follows: Baseline (baseline OCR), collagen (OCR after collagen addition), activation (collagen-basal), ATP-independent or proton leak (OCR resistant to oligomycin addition), ATP-linked respiration (basal-proton leak), maximum (OCR obtained after addition of FCCP), and spare (maximal-basal), coupling efficiency (OCR Basal – OCR ATP-indep)/OCR Basal). Respiratory parameters were calculated according to Refs. [66, 70, 73].
smiles,measurement,setting,value
"Cc1c(C)c(O)c2c(c1O)C(=O)C(CCCC[P+](c1ccccc1)(c1ccccc1)c1ccccc1)=CC2(C)C.[Br-] [NP4, (4-(5,8-dihydroxy-4,4,6,7-tetramethyl-1-oxo-1,4-dihydronaphthalen-2-yl)butyl)triphenyl phosphonium bromide]",Intraplatelet calcium levels,[1],increase it significantly
same,Bound fibrinogen in platelet-rich plasma,[2],significant decrease
same,P-selectin exposure in platelet-rich plasma,[2],significant decrease
same,Mitochondrial membrane potential (ΔΨm),[3],significantly decrease
same,Closure time PFA-200 Collagen/ADP,[4],does not significantly alter
same,Closure time PFA-200 Collagen/Epinephrine,[4],does not significantly alter
same,Cytosolic total ROS levels,[5],neither NP4 nor NH4 significantly affected
same,ATP-dep (OCRBasal – OCRATP-indep),[6]; 10 µM,"0,2 ± 0,22"
same,Activation (OCRCollagen – OCRBasal),[6]; 10 µM,"0,15 ± 0,14"
same,Coupling efficiency ((OCRBasal – OCRATP-indep)/OCRBasal),[6]; 10 µM,"0,095 ± 0,075"
same,Spare (OCRMaximum – OCRBasal),[6]; 10 µM,"1,03 ± 0,29"
same,Basal (OCR/10^6 platelets),"[6]; 10 µM, Seahorse Mito Stress Test","1,33 ± 0,69 OCR/10^6 platelets"
same,Maximum (OCR/10^6 platelets),"[6]; 10 µM, after 1.4 μM FCCP","2,28 ± 0,45 OCR/10^6 platelets"
same,Collagen (OCR/10^6 platelets),"[6]; 10 µM, after 3 μg/mL collagen","1,29 ± 0,48 OCR/10^6 platelets"
same,Non-mito (OCR/10^6 platelets),"[6]; 10 µM, after antimycin A/rotenone","0,04 ± 0,08 OCR/10^6 platelets"
same,ATP-indep (OCR/10^6 platelets),"[6]; 10 µM, proton leak, after 2.5 μM oligomycin","1,69 ± 0,47 OCR/10^6 platelets"
same,Basal extracellular acidification of the media,"[6]; non-activated platelets, NP4 10 μM, control 87.5 ± 10.6",133.9 ± 14.1 mpH/min/10^6 platelets
